Tests used:
[1] = system: various enzymes involved in the biosynthesis of steroid hormones; conditions: background statement in words; cited from earlier work
[2] = target: T1, Human placental aromatase (Homo sapiens, UniProt P11511); assay: In vitro human placental aromatase inhibiting activity; assay type: biochemical; conditions: substrate androstenedione 4 μM, 37° C., 1 hour
T1 construct: the pellet thus obtained was used as a microsome fraction; from tissue; host or cells: human placenta, microsome fraction
T1 sequence (P11511 1-503): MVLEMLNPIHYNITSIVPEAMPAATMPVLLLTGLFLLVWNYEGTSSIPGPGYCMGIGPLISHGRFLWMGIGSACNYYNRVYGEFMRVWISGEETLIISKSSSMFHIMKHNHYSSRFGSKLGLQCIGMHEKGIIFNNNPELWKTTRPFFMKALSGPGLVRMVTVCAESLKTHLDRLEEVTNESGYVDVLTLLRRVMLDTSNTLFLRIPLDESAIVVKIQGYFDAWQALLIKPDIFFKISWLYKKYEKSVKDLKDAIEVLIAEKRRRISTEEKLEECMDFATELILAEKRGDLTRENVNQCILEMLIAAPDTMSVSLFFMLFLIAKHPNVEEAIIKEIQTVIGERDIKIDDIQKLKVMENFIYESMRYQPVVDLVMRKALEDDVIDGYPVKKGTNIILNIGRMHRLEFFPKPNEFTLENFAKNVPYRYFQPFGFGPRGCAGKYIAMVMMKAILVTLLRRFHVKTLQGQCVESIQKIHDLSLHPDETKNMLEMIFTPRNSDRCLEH
Procedure: Preparation of human placental microsome:
The method of F. A. Thompson et al. [Journal of Biological Chemistry, 249, 5364 (1974)]was partly modified. Thus, a placenta was washed with cooled 0.15 M KCl and, after removal of adhering membranes and great blood vessels, minced to sufficiently small pieces by means of scissors. To the minced tissue was added cold 0.02 M phosphate buffer (pH 7.4) containing 0.25 M sucrose in an amount of 1 ml per 1 g of tissue, the mixture was homogenized with a Polytron homogenizer (30 seconds, three times, in ice) and then centrifuged at 800×g for 10 minutes, the supernatant was subjected to centrifugation at 20,000×g for 30 minutes, followed by further centrifugation at 148,000×g for 45 minutes, and the pellet thus obtained was used as a microsome fraction. The microsome obtained was suspended in the same phosphate buffer as mentioned above in a concentration corresponding to 10 g of wet placenta per ml. The suspension was stored at -80° C. and, just prior to use, diluted 5 to 6 times.
Aromatase activity measurement and inhibitory activity:
The method of F. A. Thompson et al. (vide supra) was partly modified as follows:
A reaction solution ([…]) containing 4 μM 4-androstene-3,17-dione, 140,000 dpm, 1,2[^3 H]-androstenedione, 550 μM NADPH, 20 μl of the above microsome and 5 μl of buffer or 5 μl of an inhibitor-containing solution was incubated at 37° C. for 1 hour. In this measurement system, aromatization of androstenedione gives [^3 H]--H2 O. Therefore, this reaction mixture was extracted with 0.5 ml of chloroform for separation, the aqueous layer obtained was treated with 0.25 ml of 5% active carbon for removal of free steriods and then subjected to low speed centrifugation. A scintillator (3 ml) was added to 0.2 ml of the supernatant, and the radioactivity was measured by means of a liquid scintillation counter. The percent inhibition (%) was determined by comparing the result thus obtained with the result for a control sample as obtained without adding any inhibitor. The activity was expressed in terms of IC50 (μg/ml), namely the inhibitor concentration required for 50% inhibition of the enzyme activity at the substrate (androstenedione) concentration of 4 μM.

estrogen synthesis [3] = assay: Estrogen synthesis inhibition in rats (PMSG-stimulated); assay type: in vivo, young SD rats; conditions: 4 days, Mean ± SD
Procedure: Groups of five young SD rats ([…], 19 days old) were used. Test groups were administered subcutaneously with the test compounds suspended in 0.2% gum arabic-containing physiological saline in a dose of 25 mg/kg or 50 mg/kg at 24-hour intervals for consecutive 4 days. Non-test groups (control groups […]) were administered with 0.2 ml of 0.2% gum arabic-containing physiological saline. On the third day after initiation of the test, a single dose of pregnant mare serum gonadotropin (PMSG) was administered subcutaneously in a dose of 10 U/rat to the test groups and to the control group 2, following the administration of the test compounds. […] The plasma samples thus obtained were subjected to plasma estradiol-17B level determination by radioimmunoassay. The uterus and ovaries were excised from each rat and, after removal of superfluous connective tissues, weighed. The results thus obtained are shown in Table 2.4-Hydroxyandrostenedione (4-OHA) was used as a reference compound for the pharmacological effect evaluation.
*P < 0.05, **P < 0.02, ***P < 0.01, ****<0.001 against PMSG group

estrogen synthesis [4] = assay: as above; assay type: in vivo, young SD rats; conditions: Test I, 100 mg/kg/day s.c., 4 days, Mean ± SD
[5] = Test I, 25 mg/kg/day s.c., PMSG control 568.6 ± 69.7
[6] = Test I, 50 mg/kg/day s.c., PMSG control 568.6 ± 69.7
[7] = Test II, 25 mg/kg/day s.c., PMSG control 240.0 ± 34.9
[8] = Test II, 50 mg/kg/day s.c., PMSG control 240.0 ± 34.9

For `CCC1(c2ccc(N)cc2)CCC(=O)NC1=O` (centres unmarked) [Aminoglutethimide], the “inhibition of various enzymes involved in the biosynthesis of steroid hormones” value [1] is given as “inhibits various enzymes involved in the biosynthesis of steroid hormones”.
In the case of `COC1=C(C2=C(OC)C(=O)c3cc4c(c(O)c3C2=O)C(=O)OC(C)C4)C(=O)c2c(cc3c(c2O)C(=O)OC(C)C3)C1=O` (centres unmarked) [Compound 1, xanthomegnin], the IC50 [2] is reported as 8.18 µM, the Body weight gain (estrogen synthesis [3]; Test I, 25 mg/kg/day s.c.) is reported as 22.4 ± 3.1 g and the “Tissue weight, Ovaries” value (estrogen synthesis [3]; Test I, 25 mg/kg/day s.c.) is reported as 23.7 ± 3.4 mg. The “Tissue weight, Uterus” value (estrogen synthesis [3]; Test I, 25 mg/kg/day s.c.) was 88.9 ± 9.0 mg, the “Plasma estradiol-17β level” value (estrogen synthesis [3]; [5]) was 204.7 ± 67.0 pg/mL and the Body weight gain (estrogen synthesis [3]; Test I, 50 mg/kg/day s.c.) was 21.4 ± 2.7 g. The “Tissue weight, Ovaries” value (estrogen synthesis [3]; Test I, 50 mg/kg/day s.c.) was 25.5 ± 5.5 mg, the “Tissue weight, Uterus” value (estrogen synthesis [3]; Test I, 50 mg/kg/day s.c.) was 91.9 ± 14.4 mg and the “Plasma estradiol-17β level” value (estrogen synthesis [3]; [6]) was 250.9 ± 161.1 pg/mL.
For `COC1=C(C2=C(O)C(=O)c3cc4c(c(O)c3C2=O)C(=O)OC(C)C4)C(=O)c2c(cc3c(c2O)C(=O)OC(C)C3)C1=O` (centres unmarked) [Compound 2, monodemethylxanthomegnin], the IC50 [2] was 24.1 µM, the “Tissue weight, Ovaries” value (estrogen synthesis [3]; Test III, 25 mg/kg/day s.c.) was 29.4 ± 7.5 mg and the “Tissue weight, Uterus” value (estrogen synthesis [3]; Test III, 25 mg/kg/day s.c.) was 115.7 ± 14.0 mg. For the same compound, the “Plasma estradiol-17β level” value (estrogen synthesis [3]; Test III, 25 mg/kg/day s.c., PMSG control 327.9 ± 126.6) was 189.5 ± 123.4 pg/mL, the “Tissue weight, Ovaries” value (estrogen synthesis [3]; Test III, 50 mg/kg/day s.c.) was 29.0 ± 2.5 mg and the “Tissue weight, Uterus” value (estrogen synthesis [3]; Test III, 50 mg/kg/day s.c.) was 106.3 ± 14.0 mg. The “Plasma estradiol-17β level” value (estrogen synthesis [3]; Test III, 50 mg/kg/day s.c., PMSG control 327.9 ± 126.6) was 195.1 ± 79.3 pg/mL.
For `CC1Cc2cc3c(c(O)c2C(=O)O1)C(=O)C(C1=C(O)C(=O)c2cc4c(c(O)c2C1=O)C(=O)OC(C)C4)=C(O)C3=O` (centres unmarked) [Compound 3, luteosporin], the IC50 [2] was 134 µM, the “Tissue weight, Ovaries” value (estrogen synthesis [3]; Test II, 25 mg/kg/day s.c.) was 21.3 ± 4.4 mg and the “Tissue weight, Uterus” value (estrogen synthesis [3]; Test II, 25 mg/kg/day s.c.) was 93.6 ± 22.4 mg. For the same compound, the “Plasma estradiol-17β level” value (estrogen synthesis [3]; [7]) was 124.1 ± 53.3 pg/mL, the “Tissue weight, Ovaries” value (estrogen synthesis [3]; Test II, 50 mg/kg/day s.c.) was 22.6 ± 5.4 mg and the “Tissue weight, Uterus” value (estrogen synthesis [3]; Test II, 50 mg/kg/day s.c.) was 115.4 ± 30.4 mg. The “Plasma estradiol-17β level” value (estrogen synthesis [3]; [8]) was 71.1 ± 23.4 pg/mL.
With `CC1Cc2cc3c(c(O)c2C(=O)O1)C(=O)C(C1=C(O)C(=O)c2cc4c(c(O)c2C1=O)C(=O)OC(C)C4)=C(N)C3=O` (centres unmarked) [Compound 4, plastatin] the IC50 [2] was 30.2 µM, the “Tissue weight, Ovaries” value (estrogen synthesis [3]; Test II, 25 mg/kg/day s.c.) was 20.8 ± 3.9 mg and the “Tissue weight, Uterus” value (estrogen synthesis [3]; Test II, 25 mg/kg/day s.c.) was 97.4 ± 17.8 mg. For the same compound, the “Plasma estradiol-17β level” value (estrogen synthesis [3]; [7]) was 156.0 ± 47.8 pg/mL, the “Tissue weight, Ovaries” value (estrogen synthesis [3]; Test II, 50 mg/kg/day s.c.) was 26.8 ± 4.8 mg and the “Tissue weight, Uterus” value (estrogen synthesis [3]; Test II, 50 mg/kg/day s.c.) was 86.6 ± 9.6 mg. For the same compound, the “Plasma estradiol-17β level” value (estrogen synthesis [3]; [8]) was 190.3 ± 19.9 pg/mL.
For `C[C@]12CCC(=O)C(O)=C1CC[C@@H]1[C@@H]2CC[C@]2(C)C(=O)CC[C@@H]12` [Compound 4-OHA, 4-Hydroxyandrostenedione, reference compound], the “Tissue weight, Ovaries” value (estrogen synthesis [3]; Test I, 100 mg/kg/day s.c.) was 24.3 ± 4.5 mg, the “Tissue weight, Uterus” value (estrogen synthesis [3]; Test I, 100 mg/kg/day s.c.) was 60.6 ± 9.0 mg and the “Plasma estradiol-17β level” value (estrogen synthesis [3]; Test I, 100 mg/kg/day s.c., PMSG control 568.6 ± 69.7) was 115.5 ± 47.4 pg/mL. For the same compound, the Body weight gain (estrogen synthesis [3]; Test II, 100 mg/kg/day s.c.) was 22.8 ± 1.5 g, the “Tissue weight, Ovaries” value (estrogen synthesis [3]; Test II, 100 mg/kg/day s.c.) was 22.3 ± 3.3 mg and the “Tissue weight, Uterus” value (estrogen synthesis [3]; Test II, 100 mg/kg/day s.c.) was 61.5 ± 8.2 mg. The “Plasma estradiol-17β level” value (estrogen synthesis [3]; Test II, 100 mg/kg/day s.c., PMSG control 240.0 ± 34.9) was 36.1 ± 33.0 pg/mL, the Body weight gain (estrogen synthesis [3]; Test III, 100 mg/kg/day s.c.) was 24.8 ± 0.8 g and the “Tissue weight, Ovaries” value (estrogen synthesis [3]; Test III, 100 mg/kg/day s.c.) was 26.3 ± 1.7 mg. The “Tissue weight, Uterus” value (estrogen synthesis [3]; Test III, 100 mg/kg/day s.c.) was 71.9 ± 8.6 mg, the “Plasma estradiol-17β level” value (estrogen synthesis [3]; Test III, 100 mg/kg/day s.c., PMSG control 327.9 ± 126.6) was 52.3 ± 21.7 pg/mL and the Body weight gain (estrogen synthesis [4]) was 25.0 ± 1.6 g.
In the case of `COC1=C(c2c(OC)cc3cc4c(c(O)c3c2O)C(=O)OC(C)C4)C(=O)c2c(cc3c(c2O)C(=O)OC(C)C3)C1=O` (centres unmarked) [Compound 5, viomellein], the IC50 [2] is reported as 130 µM, the Body weight gain (estrogen synthesis [3]; Test II, 25 mg/kg/day s.c.) is reported as 22.8 ± 1.8 g and the “Tissue weight, Ovaries” value (estrogen synthesis [3]; Test II, 25 mg/kg/day s.c.) is reported as 25.3 ± 4.9 mg. For the same compound, the “Tissue weight, Uterus” value (estrogen synthesis [3]; Test II, 25 mg/kg/day s.c.) was 104.6 ± 16.6 mg, the “Plasma estradiol-17β level” value (estrogen synthesis [3]; [7]) was 60.5 ± 51.1 pg/mL and the Body weight gain (estrogen synthesis [3]; Test II, 50 mg/kg/day s.c.) was 22.0 ± 1.2 g. For the same compound, the “Tissue weight, Ovaries” value (estrogen synthesis [3]; Test II, 50 mg/kg/day s.c.) was 21.0 ± 2.5 mg, the “Tissue weight, Uterus” value (estrogen synthesis [3]; Test II, 50 mg/kg/day s.c.) was 97.7 ± 16.0 mg and the “Plasma estradiol-17β level” value (estrogen synthesis [3]; [8]) was 63.8 ± 24.3 pg/mL.
In the case of `CC1Cc2cc3c(c(O)c2C(=O)O1)C(=O)C(C1=C(N)C(=O)c2cc4c(c(O)c2C1=O)C(=O)OC(C)C4)=C(N)C3=O` (centres unmarked) [Compound 6], the IC50 [2] is reported as 7.16 µM, the “Tissue weight, Ovaries” value (estrogen synthesis [3]; Test I, 25 mg/kg/day s.c.) is reported as 32.2 ± 7.0 mg and the “Tissue weight, Uterus” value (estrogen synthesis [3]; Test I, 25 mg/kg/day s.c.) is reported as 102.2 ± 15.5 mg. For the same compound, the “Plasma estradiol-17β level” value (estrogen synthesis [3]; [5]) was 353.2 ± 48.4 pg/mL, the “Tissue weight, Ovaries” value (estrogen synthesis [3]; Test I, 50 mg/kg/day s.c.) was 32.0 ± 2.9 mg and the “Tissue weight, Uterus” value (estrogen synthesis [3]; Test I, 50 mg/kg/day s.c.) was 103.1 ± 11.6 mg. The “Plasma estradiol-17β level” value (estrogen synthesis [3]; [6]) was 326.0 ± 115.1 pg/mL.

Reference: patent publication US4963581A, “Naphthopyran derivatives and use thereof” (Takeda Chemical Industries, Ltd., priority 1988, dated 1990)
